Measurements: article doi:10.1101/2021.10.04.463106, “A high throughput screening assay for inhibitors of SARS-CoV-2 pseudotyped particle entry” (bioRxiv, 2021)
Like-named read-outs stand apart in the source and are kept apart here.

Assays:
Assay in all cases: microbe, parasite or virus in culture
Type in all cases: cell-based
[1] = system: SARS-CoV-2-S PP (B.1.351 spike variant)
[2] = system: SARS-CoV-2-S PP (Wuhan-Hu-1 spike)
[3] = system: SARS-CoV-2-S PP (B.1.1.7 spike variant)
[4] = Severe acute respiratory syndrome coronavirus 2, read-out: EC50, B.1.351 PP
[5] = Severe acute respiratory syndrome coronavirus 2, read-out: EC50, Wuhan-Hu-1 PP
[6] = Severe acute respiratory syndrome coronavirus 2, read-out: EC50, B.1.1.7 PP

SMILES	EC50 [1, 4] [nM]	EC50 [2, 5] [nM]	EC50 [3, 6] [nM]	EC50 ([1]; Severe acute respiratory syndrome coronavirus 2, read-out: EC50 in B.1.351 SARS-CoV-2-S PP entry assay) [nM]	EC50 ([2]; Severe acute respiratory syndrome coronavirus 2, read-out: EC50 in Wuhan-Hu-1 SARS-CoV-2-S PP entry assay) [nM]	shift in potency between the Wuhan-Hu-1 spike sequence and the B.1.1.7 spike variant [3] [fold]	EC50 ([3]; Severe acute respiratory syndrome coronavirus 2, read-out: EC50 in B.1.1.7 SARS-CoV-2-S PP entry assay) [nM]
CCOC(=O)[C@H]1O[C@@H]1C(=O)N[C@@H](CC(C)C)C(=O)NCCC(C)C [Aloxistatin, aloxistatin]	1210	800	460				
Cc1cccc(/C=N/Nc2cc(N3CCOCC3)nc(OCCc3ccccn3)n2)c1 [Apilimod, apilimod]				4.7	9.2	7	1.3
COc1cc(N2CCC(N3CCN(C)CC3)CC2)ccc1Nc1ncc(Cl)c(Nc2ccccc2P(C)(C)=O)n1 [Brigatinib, brigatinib]	23	38	54				
CCCC[C@@H](C=O)NC(=O)[C@H](CC(C)C)NC(=O)OCc1ccccc1 [Calpeptin, calpeptin]	1070	870	310				
